Assay results: patent publication US8507544B2, “Bi-aryl amide compounds as CRTh2 receptor modulators” (Astrazeneca AB, priority 2007, dated 2013)
Counter-ions that a name gives are not always drawn. Blank lines part the entries; values can stand above or below the compound they belong to.

Legend:
[1] = Water uptake by GVS (gravimetric vapour sorption); format: physicochemical; conditions: between RH of 0% -80%, as measured by GVS
Method: • XRPD data were collected using either a PANalytical CubiX PRO machine or a Philips X-Pert MPD machine. • XRPD—PANalytical CubiX PRO • Data was collected with a PANalytical CubiX PRO machine in θ-θ configuration over the scan range 2° to 40° 2θ with 100-second exposure per 0.02° increment. The X-rays were generated by a copper long-fine focus tube operated at 45 kV and 40 mA. The wavelength of the copper X-rays was 1.5418 Å. The data was collected on zero background holders on which ˜2 mg of the compound was placed. The holder was made from a single crystal of silicon, which had been cut along a non-diffracting plane and then polished on an optically flat finish. […] The X-rays incident upon this surface were negated by Bragg extinction. • DSC thermograms were measured using a TA Q1000 Differential Scanning Calorimeter, with aluminium pans and pierced lids. […] The procedure was carried out under a flow of nitrogen gas (50 ml/min) and the temperature studied from 25 to 300° C. at a constant rate of temperature increase of 10° C. per minute. • GVS profiles were measured using a Dynamic Vapour Sorption DVS-1 instrument. The solid sample ca. 1-5 mg was placed into a glass vessel and the weight of the sample was recorded during a dual cycle step method (40 to 90 to 0 to 90 to 0% relative humidity (RH), in steps of 10% RH).

rhCRTh2 = target: T1, rhCRTh2 (Homo sapiens, UniProt Q9Y5Y4); assay: Ligand binding assay ([3H]PGD2, SPA, HEK cell membranes); conditions: [3H]PGD2 binding to HEK cell membranes containing CRTh2, RT 2 hours
T1 construct: expressed in transfected cells; host or cells: HEK cells (membrane preparation)
T1 sequence (Q9Y5Y4 1-395): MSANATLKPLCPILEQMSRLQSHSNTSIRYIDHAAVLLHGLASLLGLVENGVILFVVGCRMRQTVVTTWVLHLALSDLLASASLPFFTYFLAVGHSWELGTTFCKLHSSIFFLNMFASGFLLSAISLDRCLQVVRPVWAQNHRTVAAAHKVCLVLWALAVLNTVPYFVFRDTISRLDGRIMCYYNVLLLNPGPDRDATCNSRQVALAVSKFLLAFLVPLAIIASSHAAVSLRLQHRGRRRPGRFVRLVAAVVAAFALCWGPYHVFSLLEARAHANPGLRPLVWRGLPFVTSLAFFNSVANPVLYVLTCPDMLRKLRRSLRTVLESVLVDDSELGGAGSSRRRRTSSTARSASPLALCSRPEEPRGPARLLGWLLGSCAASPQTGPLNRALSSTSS
Method: HEK cells expressing rhCRTh2/Gα16 were routinely maintained in DMEM containing 10% Foetal Bovine Serum (HyClone), 1 mg/ml geneticin, 2 mM L-glutamine and 1% non-essential amino acids. For the preparation of membranes, the adherent transfected HEKcells were grown to confluence in two layer tissue culture factories (Fisher, catalogue number TKT-170-[MUT]). Maximal levels of receptor expression were induced by addition of 500 mM sodium butyrate for the last 18 hours of culture. The adherent cells were washed once with phosphate buffered saline (PBS, 50 ml per cell factory) and detached by the addition of 50 ml per cell factory of ice-cold membrane homogenisation buffer [20 mM HEPES (pH 7.4), 01. mM dithiothreitol, 1 mM EDTA, 0.1 mM phenyl methyl sulphonyl fluoride and 100 μg/ml bacitracin]. […] The final pellet was re-suspended in 4 ml of membrane homogenisation buffer per cell factory used and the protein content determined. […] (The optimum coating concentrations were determined for each batch of membranes) The beads were pelleted by centrifugation (800×g for 7 minutes at 4° C.), washed once with assay buffer (50 mM HEPES pH 7.4 containing 5 mM magnesium chloride) and finally re-suspended in assay buffer at a bead concentration of 10 mg/ml. […] The assay plate was incubated at RT for 2 hours and counted on a Wallac Microbeta liquid scintillation counter (1 minute per well).

human hepatocytes = assay: Determination of metabolic intrinsic clearance (CLint) using human hepatocytes; format: in vitro ADME; conditions: 1 μM substrate, 37° C., n=3
Method: Compound stocks were prepared in dimethyl sulfoxide at 100-fold incubation concentration (100 μM). 10 μl of this 100 μM stock was added to a vial containing 490 μl of hepatocyte suspension buffer (without serum). A vial containing either human hepatocytes at a concentration of 2 million viable cells/ml was pre-incubated for 5 min in a shaking (80 oscillations/min) water bath at 37° C. along with the vial containing the drug/buffer mix.
Reactions were initiated by adding 500 μl of hepatocyte suspension to the 500 μl of drug/buffer mix (giving a final substrate concentration of 1 μM at 1% v/v dimethyl sulfoxide). Aliquots (40 μl) were removed at 5, 15, 30, 45, 60, 75 90 & 120 min and reactions were quenched in 80 μl of ice-cold methanol. Samples were subsequently frozen for 1 h at −20° C. and then centrifuged at 2000 g for 20 min at 4° C. The supernatants were removed and analysed by MS/MS and Clint was estimated from the slope of a natural Log of MS/MS response versus time plot. Using physiological scaling factors to account for hepatocellularity and liver weight in the human (Ito and Houston, 2004) hepatic blood clearance was predicted (Clh) using the method outlined by Riley et al., 2005. Typical acid drugs showing an intrinsic clearance value in this assay of <2 μl/min/e^6 cells show robust half lives in man consistent with a once-daily dose intervals. […]

water uptake ([1]; listed as example 4 polymorph A): 0.7%
Compound: C[C@H](Oc1ccc(F)cc1-c1ccc(C(=O)N2CCCC2(C)C)c(Cl)c1)C(=O)O [Example 4, (2S)-2-({3′-chloro-4′-[(2,2-dimethylpyrrolidin-1-yl)carbonyl]-5-fluorobiphenyl-2-yl}oxy)propanoic acid crystaline free acid]

water uptake ([1]; listed as example 2 polymorph A): 0.6%
Compound: C[C@H](Oc1ccc(F)cc1-c1ccc(C(=O)N2CCCC2(C)C)c(Cl)c1)C(=O)O [Example 2, (2S)-2-({3′-chloro-4′-[(2,2-dimethylpyrrolidin-1-yl)carbonyl]-5-fluorobiphenyl-2-yl}oxy)propanoic acid 2-methylpropan-2-amine salt]

pIC50 (rhCRTh2): 8.4
Clint (human hepatocytes): < 1 μl/min/e^6
Compound: C[C@H](Oc1ccc(F)cc1-c1ccc(C(=O)N2CCCC2(C)C)c(Cl)c1)C(=O)O [Example 1, (2S)-2-({3′-chloro-4′-[(2,2-dimethylpyrrolidin-1-yl)carbonyl]-5-fluorobiphenyl-2-yl}oxy)propanoic acid]
